Values after ≈ are worked out from the molar mass of the structure shown.
What was measured:
Format in all cases: functional
[1] = tested on: Staphylococcus aureus; experiment: Antibacterial activity against methicillin-susceptible Staphylococcus aureus ATCC 29213 by broth microdilution method in presence of 4% human serum albumin
[2] = tested on: Staphylococcus aureus; experiment: Antibacterial activity against methicillin-susceptible Staphylococcus aureus ATCC 29213 by broth microdilution method in presence of 5% pulmonary surfactant; conditions: ATCC 29213, Pulmonary surfactant
[3] = tested on: Staphylococcus aureus; experiment: Antibacterial activity against methicillin-susceptible Staphylococcus aureus ATCC 29213 grown on calcium supplemented Mueller-Hinton broth by broth microdilution method
[4] = tested on: Staphylococcus aureus; experiment: Antibacterial activity against methicillin-susceptible Staphylococcus aureus ATCC 29213 by broth microdilution method in presence of 1% pulmonary surfactant; conditions: ATCC 29213, Pulmonary surfactant
[5] = tested on: Streptococcus pneumoniae; experiment: Antibacterial activity against Streptococcus pneumoniae

## CCCCCCCCCC(=O)N[C@@H](CCc1ccc(OC)cc1)C(=O)N[C@@H](CC(N)=O)C(=O)N[C@@H](CC(=O)O)C(=O)N[C@@H]1C(=O)NCC(=O)N[C@@H](CCCN)C(=O)N[C@@H](CC(=O)O)C(=O)N[C@H](C)C(=O)N[C@@H](CC(=O)O)C(=O)NCC(=O)N[C@H](CO)C(=O)N[C@@H]([C@@H](C)CC(=O)O)C(=O)N[C@@H](CC(=O)c2ccccc2N)C(=O)O[C@@H]1C
[1]
  MIC: 8 µg/mL
[2]
  MIC: 32 µg/mL
[3]
  MIC: 2 µg/mL (≈ 1.23 µM)
[4]
  MIC: 8 µg/mL

## CCCCCCCCCC(=O)N[C@@H](COc1ccccc1)C(=O)N[C@@H](CC(N)=O)C(=O)N[C@@H](CC(=O)O)C(=O)N[C@@H]1C(=O)NCC(=O)N[C@@H](CCCN)C(=O)N[C@@H](CC(=O)O)C(=O)N[C@H](C)C(=O)N[C@@H](CC(=O)O)C(=O)NCC(=O)N[C@H](CO)C(=O)N[C@@H]([C@@H](C)CC(=O)O)C(=O)N[C@@H](CC(=O)c2ccccc2N)C(=O)O[C@@H]1C
[1]
  MIC: 32 µg/mL
[2]
  MIC: > 32 µg/mL
[3]
  MIC: 4 µg/mL (≈ 2.5 µM)
[4]
  MIC: 32 µg/mL

## CCCCCCCCCC(=O)N[C@@H](Cc1c[nH]c2ccccc12)C(=O)N[C@H](CC(N)=O)C(=O)N[C@@H](CC(=O)O)C(=O)N[C@@H]1C(=O)NCC(=O)N[C@@H](CCCN)C(=O)N[C@@H](CC(=O)O)C(=O)N[C@H](C)C(=O)N[C@@H](CC(=O)O)C(=O)NCC(=O)N[C@H](CO)C(=O)N[C@@H]([C@H](C)CC(=O)O)C(=O)N[C@@H](CC(=O)c2ccccc2N)C(=O)O[C@@H]1C
[1]
  MIC: 2 µg/mL
[2]
  MIC: > 32 µg/mL
[5]
  MIC90: 0.06 µg/mL (≈ 0.037 µM)
[3]
  MIC: 1 µg/mL (≈ 0.617 µM)
[4]
  MIC: 16 µg/mL

## CO/N=C(\C(=O)N[C@@H]1C(=O)N2C(C(=O)O)=C(CSc3nc(=O)c(O)nn3C)CS[C@H]12)c1csc(N)n1 [CEFTRIAXONE]
[1]
  MIC: 8 µg/mL
[2]
  MIC: 2 µg/mL
[3]
  MIC: 2 µg/mL (≈ 3.61 µM)
[4]
  MIC: 2 µg/mL

Source: ChEMBL document CHEMBL2086297, “Reduced pulmonary surfactant interaction of daptomycin analogs via tryptophan replacement with alternative amino acids” (2012)
